Data published in paper PMC5786798, “Discovery of New Inhibitors of Toxoplasma gondii via the Pathogen Box” (Antimicrobial Agents and Chemotherapy, 2018).

Columns and labels:
[1] = Cytotoxicity evaluation on Vero cell cultures (UptiBlue viable cell counting assay, 72 h); type: cell-based; settings: African green monkey, Vero cells, means from four values from two experiments
Procedure: The in vitro cytotoxicity of compounds was evaluated on Vero cell cultures by using 96-well plates, since these cells were used for T. gondii growth in our model. […] After 72 h, cytotoxicity was evaluated by using the UptiBlue viable cell counting assay (Interchim). […] Spectrophotometric measurements (FLUOstar Omega microplate reader; BMG Labtech, France) were made at 570 nm and corrected at 600 nm, and blank readings were made on the mean value of the seven negative-control wells. A sample was considered toxic when the cell viability was lower than 80%. […] For a visual control, the last well of each condition was fixed with cold methanol and stained with kit RAL 555 (RAL Diagnostics, France) and examined microscopically (AxioVert 200M; Zeiss, France) at a magnification of ×20 instead of being tested with UptiBlue.

[2] = system: T. gondii tachyzoites (RH strain, type I); test: Determination of IC50s, in vitro chemosensitivity of T. gondii (ELISA, 72 h); settings: for IC50: T. gondii RH tachyzoites on Vero cells, 72 h, ELISA, 2-fold dilution series 2 to 0.015 μM, means from four values from two experiments; for selective antitoxoplasmic activity according to hit criteria: hit criteria IC50 <2 μM and SI >4
Toxoplasma gondii = settings: effect against Toxoplasma; literature value, no reference given; cited from earlier work

COc1ccc(OC)c(NCc2ccc3nc(N)nc(N)c3c2Cl)c1 [MMV675968]
CC50 at 72 h [1]: 5.5 µM

c1ccc(-c2nc(NC3CCCCC3)cc(C3CC3)n2)nc1 [MMV021013]
CC50 at 72 h [1]: 15.9 µM | IC50 [2]: 1.12 ± 0.035 µM | IC50 ([2]; Toxoplasma gondii, Vero): < 2 µM

O=C(Nc1ccc(C(F)(F)F)c(C(F)(F)F)c1)c1cc(Cl)ccc1O [MMV687807]
CC50 at 72 h [1]: 1.69 µM

CN1CCC(c2cc(-c3ccncc3)c(-c3ccc(F)cc3)[nH]2)CC1 [MMV688703]
selective antitoxoplasmic activity according to hit criteria [2]: not selective | selective antitoxoplasmic activity according to hit criteria ([2]; listed as MV688703): did not show the criteria for inclusion as an active compound

O=C(Nc1ccc(N2CCNCC2)cc1)c1ccn2ncc(-c3cccc(Cl)c3)c2n1 [MMV022478]
CC50 at 72 h [1]: 2.23 µM

FC(F)(F)c1cnc(Sc2nnc(-c3ccncc3)o2)c(Cl)c1 [MMV011765]
CC50 at 72 h [1]: 9.48 µM

CNC(=O)c1nn(C)c2c1C(C)(C)Cc1cnc(Nc3ccc(N4CCN(C)CC4)cc3)nc1-2 [MMV676602]
CC50 at 72 h [1]: 3.3 µM

O=C(Nc1nc(-c2ccccn2)cs1)c1cncn1-c1ccccc1 [MMV676512]
CC50 at 72 h [1]: 3.61 µM

CCC(C)n1ncn(-c2ccc(N3CCN(c4ccc(OCC5COC(Cn6cncn6)(c6ccc(Cl)cc6Cl)O5)cc4)CC3)cc2)c1=O (stereo not shown) [itraconazole]
IC50 (Toxoplasma gondii): 0.5 µM

OC(Cn1cncn1)(Cn1cncn1)c1ccc(F)cc1F [fluconazole]
IC50 (Toxoplasma gondii): 3 µM

CCc1nc(N)nc(N)c1-c1ccc(Cl)cc1 [PYR, pyrimethamine, reference compound]
CC50 at 72 h [1]: 10.5 µM | IC50 ([2]; Toxoplasma gondii, Vero): 1.17 ± 0.076 µM

CC(C)(C)[C@H]1CC[C@H](CC2=C(O)C(=O)c3ccccc3C2=O)CC1 [MMV689480, buparvaquone, reference compound]
CC50 at 72 h [1]: 8.66 µM
